{"source": "paper PMC9570413", "about": "“A New Phospholipase D from Moritella sp. JT01: Biochemical Characterization, Crystallization and Application in the Synthesis of Phosphatidic Acid” (International Journal of Molecular Sciences, 2022)", "biological_target": "T1, MsPLD (phospholipase D from Moritella sp. JT01) (Moritella sp. JT01, UniProt A0A137SLD1)", "T1 construct": "gene AKG98_3441; precursor 578 residues; C-terminal 6xHis (pET-21a); E. coli SHuffle T7; about 62 kDa", "T1 sequence (A0A137SLD1 29-578)": "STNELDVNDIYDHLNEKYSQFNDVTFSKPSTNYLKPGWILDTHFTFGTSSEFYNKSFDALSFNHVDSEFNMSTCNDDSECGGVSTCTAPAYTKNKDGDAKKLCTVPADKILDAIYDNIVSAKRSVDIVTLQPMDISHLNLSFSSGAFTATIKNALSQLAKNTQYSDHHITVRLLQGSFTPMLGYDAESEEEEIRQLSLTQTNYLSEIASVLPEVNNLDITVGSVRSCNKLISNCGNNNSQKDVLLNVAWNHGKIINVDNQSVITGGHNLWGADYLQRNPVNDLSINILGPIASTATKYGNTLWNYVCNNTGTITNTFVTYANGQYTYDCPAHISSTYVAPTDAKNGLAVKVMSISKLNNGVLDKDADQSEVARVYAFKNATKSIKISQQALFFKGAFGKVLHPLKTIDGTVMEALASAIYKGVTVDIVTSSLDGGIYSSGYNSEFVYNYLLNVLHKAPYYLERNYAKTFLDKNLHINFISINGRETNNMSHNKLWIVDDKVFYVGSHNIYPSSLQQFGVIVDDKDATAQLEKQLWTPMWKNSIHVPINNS", "assay": "enzyme-linked colorimetry (choline oxidase/peroxidase), Michaelis-Menten", "format": "biochemical", "settings": "0.1 M Tris-HCl pH 8.0, 35 °C, SDS and Triton X-100 in assay mixture; 0.5-8.0 mM PC; natural soybean PC, acyl chains not defined (class of species, no single structure)", "method": "enzyme-linked colorimetry (choline oxidase/peroxidase), Michaelis-Menten on MsPLD (phospholipase D from Moritella sp. JT01) | the kinetic parameters of MsPLD to soy PC were determined"}
{"substance": "L-α-phosphatidylcholine from soybean", "values": [{"measurement": "Km", "result": "3.44 ± 0.81", "unit": "mM"}]}
